Results reported in patent US8969516B2, “Method of hydrolysis of peptide bond” (priority 2006, dated 2015).

Assay: MALDI-TOF screening of Ni^2+ dependent hydrolysis in a combinatorial peptide library
Assay type: physicochemical
Details: Ni^2+ 2 mM, pH 8.2, 10 mM Tris, score=24/tm
How it was run: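 The screen used 1 mM peptide mixtures in 10 mM Tris, pH 8.2, with 2 mM Ni2+ at two temperatures, 37 °C and 45 °C. Product appearance and substrate decline were monitored visually by MALDI-TOF over 8 h. Scores for X and Z were then summed by row and column to rank substitutions.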

[1] = CH3CO-Gly-Ala-Thr-X-His-Z-Lys-Phe-Leu-NH2 library, 37° C.
[2] = CH3CO-Gly-Ala-Thr-X-His-Z-Lys-Phe-Leu-NH2 library, 45° C.
[3] = CH3CO-Gly-Ala-Ser-X-His-Z-Lys-Phe-Leu-NH2 library, 37° C.
[4] = CH3CO-Gly-Ala-Ser-X-His-Z-Lys-Phe-Leu-NH2 library, 45° C.

Substance: Ac-GATLHWKFL-NH2 [TLHW]
- hydrolysis score from MALDI-TOF screening [1]: 3 (a score of 3 for detection at 8 hours)
- hydrolysis score from MALDI-TOF screening [2]: 3 (a score of 3 for detection at 8 hours)

Substance: Ac-GASPHPKFL-NH2 [SPHP]
- hydrolysis score from MALDI-TOF screening [3]: 0 (a score of 0 if no trace of the product of hydrolysis was seen after 8 hours of incubation)
- hydrolysis score from MALDI-TOF screening [4]: 0 (a score of 0 if no trace of the product of hydrolysis was seen after 8 hours of incubation)

Substance: Ac-GASWHAKFL-NH2 [SWHA]
- hydrolysis score from MALDI-TOF screening [3]: 0 (a score of 0 if no trace of the product of hydrolysis was seen after 8 hours of incubation)
- hydrolysis score from MALDI-TOF screening [4]: 3 (a score of 3 for detection at 8 hours)

Substance: Ac-GATFHTKFL-NH2 [TFHT]
- hydrolysis score from MALDI-TOF screening [1]: 0 (a score of 0 if no trace of the product of hydrolysis was seen after 8 hours of incubation)
- hydrolysis score from MALDI-TOF screening [2]: 0 (a score of 0 if no trace of the product of hydrolysis was seen after 8 hours of incubation)

Substance: Ac-GATKHSKFL-NH2 [TKHS]
- hydrolysis score from MALDI-TOF screening [1]: 0 (a score of 0 if no trace of the product of hydrolysis was seen after 8 hours of incubation)
- hydrolysis score from MALDI-TOF screening [2]: 0 (a score of 0 if no trace of the product of hydrolysis was seen after 8 hours of incubation)

Substance: Ac-GATMHDKFL-NH2 [TMHD]
- hydrolysis score from MALDI-TOF screening [1]: 0 (a score of 0 if no trace of the product of hydrolysis was seen after 8 hours of incubation)
- hydrolysis score from MALDI-TOF screening [2]: 0 (a score of 0 if no trace of the product of hydrolysis was seen after 8 hours of incubation)

Substance: Ac-GATSHNKFL-NH2 [TSHN]
- hydrolysis score from MALDI-TOF screening [1]: 0 (a score of 0 if no trace of the product of hydrolysis was seen after 8 hours of incubation)
- hydrolysis score from MALDI-TOF screening [2]: 0 (a score of 0 if no trace of the product of hydrolysis was seen after 8 hours of incubation)

Substance: Ac-GASHHHKFL-NH2 [SHHH]
- hydrolysis score from MALDI-TOF screening [3]: 0 (a score of 0 if no trace of the product of hydrolysis was seen after 8 hours of incubation)
- hydrolysis score from MALDI-TOF screening [4]: 0 (a score of 0 if no trace of the product of hydrolysis was seen after 8 hours of incubation)

Substance: Ac-GATWHNKFL-NH2 [TWHN]
- hydrolysis score from MALDI-TOF screening [1]: 0 (a score of 0 if no trace of the product of hydrolysis was seen after 8 hours of incubation)
- hydrolysis score from MALDI-TOF screening [2]: 0 (a score of 0 if no trace of the product of hydrolysis was seen after 8 hours of incubation)

Substance: Ac-GASFHLKFL-NH2 [SFHL]
- hydrolysis score from MALDI-TOF screening [3]: 4 (a score of 4 for detection at 6 hours)
- hydrolysis score from MALDI-TOF screening [4]: 6 (a score of 6 for detection at 4 hours)

Substance: Ac-GATFHKKFL-NH2 [TFHK]
- hydrolysis score from MALDI-TOF screening [1]: 3 (a score of 3 for detection at 8 hours)
- hydrolysis score from MALDI-TOF screening [2]: 3 (a score of 3 for detection at 8 hours)

Substance: Ac-GASGHWKFL-NH2 [SGHW]
- hydrolysis score from MALDI-TOF screening [3]: 3 (a score of 3 for detection at 8 hours)
- hydrolysis score from MALDI-TOF screening [4]: 4 (a score of 4 for detection at 6 hours)

Substance: Ac-GASAHKKFL-NH2 [SAHK]
- hydrolysis score from MALDI-TOF screening [3]: 3 (a score of 3 for detection at 8 hours)
- hydrolysis score from MALDI-TOF screening [4]: 6 (a score of 6 for detection at 4 hours)

Substance: Ac-GATNHWKFL-NH2 [TNHW]
- hydrolysis score from MALDI-TOF screening [1]: 0 (a score of 0 if no trace of the product of hydrolysis was seen after 8 hours of incubation)
- hydrolysis score from MALDI-TOF screening [2]: 3 (a score of 3 for detection at 8 hours)

Substance: Ac-GASYHTKFL-NH2 [SYHT]
- hydrolysis score from MALDI-TOF screening [3]: 0 (a score of 0 if no trace of the product of hydrolysis was seen after 8 hours of incubation)
- hydrolysis score from MALDI-TOF screening [4]: 0 (a score of 0 if no trace of the product of hydrolysis was seen after 8 hours of incubation)

Substance: Ac-GATRHKKFL-NH2 [TRHK]
- hydrolysis score from MALDI-TOF screening [1]: 6 (a score of 6 for detection at 4 hours)
- hydrolysis score from MALDI-TOF screening [2]: 12 (a score of 12, if it was seen to be partially hydrolysed at 2 hours)

Substance: Ac-GASRHQKFL-NH2 [SRHQ]
- hydrolysis score from MALDI-TOF screening [3]: 0 (a score of 0 if no trace of the product of hydrolysis was seen after 8 hours of incubation)
- hydrolysis score from MALDI-TOF screening [4]: 0 (a score of 0 if no trace of the product of hydrolysis was seen after 8 hours of incubation)

Substance: Ac-GASAHDKFL-NH2 [SAHD]
- hydrolysis score from MALDI-TOF screening [3]: 0 (a score of 0 if no trace of the product of hydrolysis was seen after 8 hours of incubation)
- hydrolysis score from MALDI-TOF screening [4]: 0 (a score of 0 if no trace of the product of hydrolysis was seen after 8 hours of incubation)

Substance: Ac-GASMHVKFL-NH2 [SMHV]
- hydrolysis score from MALDI-TOF screening [3]: 3 (a score of 3 for detection at 8 hours)
- hydrolysis score from MALDI-TOF screening [4]: 6 (a score of 6 for detection at 4 hours)

Substance: Ac-GASSHRKFL-NH2 [SSHR]
- hydrolysis score from MALDI-TOF screening [3]: 6 (a score of 6 for detection at 4 hours)
- hydrolysis score from MALDI-TOF screening [4]: 6 (a score of 6 for detection at 4 hours)

Substance: Ac-GASNHMKFL-NH2 [SNHM]
- hydrolysis score from MALDI-TOF screening [3]: 0 (a score of 0 if no trace of the product of hydrolysis was seen after 8 hours of incubation)
- hydrolysis score from MALDI-TOF screening [4]: 0 (a score of 0 if no trace of the product of hydrolysis was seen after 8 hours of incubation)

Substance: Ac-GASMHLKFL-NH2 [SMHL]
- hydrolysis score from MALDI-TOF screening [3]: 4 (a score of 4 for detection at 6 hours)
- hydrolysis score from MALDI-TOF screening [4]: 12 (a score of 12, if it was seen to be partially hydrolysed at 2 hours)

Substance: Ac-GASWHPKFL-NH2 [SWHP]
- hydrolysis score from MALDI-TOF screening [3]: 0 (a score of 0 if no trace of the product of hydrolysis was seen after 8 hours of incubation)
- hydrolysis score from MALDI-TOF screening [4]: 0 (a score of 0 if no trace of the product of hydrolysis was seen after 8 hours of incubation)

Substance: Ac-GATAHKKFL-NH2 [TAHK]
- hydrolysis score from MALDI-TOF screening [1]: 0 (a score of 0 if no trace of the product of hydrolysis was seen after 8 hours of incubation)
- hydrolysis score from MALDI-TOF screening [2]: 0 (a score of 0 if no trace of the product of hydrolysis was seen after 8 hours of incubation)

Substance: Ac-GASWHIKFL-NH2 [SWHI]
- hydrolysis score from MALDI-TOF screening [3]: 6 (a score of 6 for detection at 4 hours)
- hydrolysis score from MALDI-TOF screening [4]: 12 (a score of 12, if it was seen to be partially hydrolysed at 2 hours)

Substance: Ac-GATWHVKFL-NH2 [TWHV]
- hydrolysis score from MALDI-TOF screening [1]: 0 (a score of 0 if no trace of the product of hydrolysis was seen after 8 hours of incubation)
- hydrolysis score from MALDI-TOF screening [2]: 0 (a score of 0 if no trace of the product of hydrolysis was seen after 8 hours of incubation)

Substance: Ac-GASTHWKFL-NH2 [STHW]
- hydrolysis score from MALDI-TOF screening [3]: 4 (a score of 4 for detection at 6 hours)
- hydrolysis score from MALDI-TOF screening [4]: 6 (a score of 6 for detection at 4 hours)

Substance: Ac-GATRHRKFL-NH2 [TRHR]
- hydrolysis score from MALDI-TOF screening [1]: 4 (a score of 4 for detection at 6 hours)
- hydrolysis score from MALDI-TOF screening [2]: 6 (a score of 6 for detection at 4 hours)

Substance: Ac-GASTHVKFL-NH2 [STHV]
- hydrolysis score from MALDI-TOF screening [3]: 0 (a score of 0 if no trace of the product of hydrolysis was seen after 8 hours of incubation)
- hydrolysis score from MALDI-TOF screening [4]: 6 (a score of 6 for detection at 4 hours)

Substance: Ac-GASKHVKFL-NH2 [SKHV]
- hydrolysis score from MALDI-TOF screening [3]: 4 (a score of 4 for detection at 6 hours)
- hydrolysis score from MALDI-TOF screening [4]: 6 (a score of 6 for detection at 4 hours)

Substance: Ac-GATFHAKFL-NH2 [TFHA]
- hydrolysis score from MALDI-TOF screening [1]: 0 (a score of 0 if no trace of the product of hydrolysis was seen after 8 hours of incubation)
- hydrolysis score from MALDI-TOF screening [2]: 0 (a score of 0 if no trace of the product of hydrolysis was seen after 8 hours of incubation)

Substance: Ac-GATPHAKFL-NH2 [TPHA]
- hydrolysis score from MALDI-TOF screening [2]: 0 (a score of 0 if no trace of the product of hydrolysis was seen after 8 hours of incubation)

Substance: Ac-GATLHTKFL-NH2 [TLHT]
- hydrolysis score from MALDI-TOF screening [1]: 0 (a score of 0 if no trace of the product of hydrolysis was seen after 8 hours of incubation)
- hydrolysis score from MALDI-TOF screening [2]: 0 (a score of 0 if no trace of the product of hydrolysis was seen after 8 hours of incubation)

Substance: Ac-GASWHRKFL-NH2 [SWHR]
- hydrolysis score from MALDI-TOF screening [3]: 3 (a score of 3 for detection at 8 hours)
- hydrolysis score from MALDI-TOF screening [4]: 6 (a score of 6 for detection at 4 hours)

Substance: Ac-GASGHPKFL-NH2 [SGHP]
- hydrolysis score from MALDI-TOF screening [3]: 0 (a score of 0 if no trace of the product of hydrolysis was seen after 8 hours of incubation)
- hydrolysis score from MALDI-TOF screening [4]: 0 (a score of 0 if no trace of the product of hydrolysis was seen after 8 hours of incubation)

Substance: Ac-GASFHAKFL-NH2 [SFHA]
- hydrolysis score from MALDI-TOF screening [3]: 0 (a score of 0 if no trace of the product of hydrolysis was seen after 8 hours of incubation)
- hydrolysis score from MALDI-TOF screening [4]: 3 (a score of 3 for detection at 8 hours)

Substance: Ac-GASSHPKFL-NH2 [SSHP]
- hydrolysis score from MALDI-TOF screening [3]: 0 (a score of 0 if no trace of the product of hydrolysis was seen after 8 hours of incubation)
- hydrolysis score from MALDI-TOF screening [4]: 0 (a score of 0 if no trace of the product of hydrolysis was seen after 8 hours of incubation)

Substance: Ac-GATFHFKFL-NH2 [TFHF]
- hydrolysis score from MALDI-TOF screening [1]: 0 (a score of 0 if no trace of the product of hydrolysis was seen after 8 hours of incubation)
- hydrolysis score from MALDI-TOF screening [2]: 0 (a score of 0 if no trace of the product of hydrolysis was seen after 8 hours of incubation)

Substance: Ac-GATSHWKFL-NH2 [TSHW]
- hydrolysis score from MALDI-TOF screening [1]: 0 (a score of 0 if no trace of the product of hydrolysis was seen after 8 hours of incubation)
- hydrolysis score from MALDI-TOF screening [2]: 0 (a score of 0 if no trace of the product of hydrolysis was seen after 8 hours of incubation)

Substance: Ac-GATGHNKFL-NH2 [TGHN]
- hydrolysis score from MALDI-TOF screening [1]: 0 (a score of 0 if no trace of the product of hydrolysis was seen after 8 hours of incubation)
- hydrolysis score from MALDI-TOF screening [2]: 0 (a score of 0 if no trace of the product of hydrolysis was seen after 8 hours of incubation)
